Test results: patent publication US20260193293A1, “PEPTIDES CAPABLE OF INHIBITING PROTEIN-PROTEIN INTERACTIONS AT GABAB1A SUBUNIT AND USES THEREOF” (UNIVERSITY OF COPENHAGEN, priority 2022, published 2026)
Where two headings read alike, the source gives them in different places. Non-standard residues stand in square brackets, D forms with d. Residues, ends and D or L forms follow the SMILES beside them. 2Nal = N[C@@H](Cc1ccc2ccccc2c1)C(=O)O

Target: Sushi domains (SD1/2) protein
Experiment: Fluorescence polarization (FP) competition assay with AJAP-1probe, calculated Ki
Format: binding
How it was run: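 Competition against 25 nM TAMRA-labelled peptide probe binding SD1/2, in PBS pH 7.4 with 1% BSA at rt, read at 530/580 nm. IC50 from sigmoidal dose-response fits, at least triplicate; Ki calculated from IC50 using probe Kd from saturation binding.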

[1] = CPP tagged peptides overview, SD1/2 binding affinity, mean ± SEM, n ≥ 3, read-out: Ki
[2] = Table 14, CPPs tagged peptides, read-out: Ki (nM) mean ± SEM
[3] = Table 1, affinity maturation, mean ± SEM, n ≥ 3, read-out: Ki
[4] = Table 13, peptides for affinity maturation, read-out: Ki (nM) mean ± SEM
[5] = Table 11, deep mutational scanning validation variants of AJAP-1WT, read-out: Ki (nM) mean ± SEM

Ki [1] | Ki [2] | Compound | further results
280 ± 2 nM | 280 ± 2 nM | CC[C@H](C)[C@H](NC(=O)[C@H](Cc1c[nH]c2ccccc12)NC(=O)[C@H](CC(=O)O)NC(=O)[C@H](CC(=O)O)NC(=O)[C@H](CC(=O)O)NC(=O)[C@H](CCC(=O)O)NC(=O)[C@H](CO)NC(=O)CNC(=O)CNC(=O)CNC(=O)CNC(=O)[C@H](CCCNC(=N)N)NC(=O)[C@H](CCCNC(=N)N)NC(=O)[C@H](CCCNC(=N)N)NC(=O)[C@H](CCCNC(=N)N)NC(=O)[C@H](CCCNC(=N)N)NC(=O)[C@H](CCCNC(=N)N)NC(=O)[C@H](CCCNC(=N)N)NC(=O)[C@H](CCCNC(=N)N)NC(C)=O)C(=O)N[C@@H](CC(=O)O)C(=O)N[C@@H](Cc1c[nH]c2ccccc12)C(=O)N[C@@H](Cc1ccc(O)cc1)C(=O)N[C@@H](CC(=O)O)C(=O)N[C@@H](CO)C(=O)N[C@@H](CC(=O)O)C(=O)N[C@@H](CC(=O)O)C(=O)N[C@@H](CC(=O)O)C(N)=O [Peptide R8-FL-16] (Ac-RRRRRRRRGGGGSEDDDWIDWYDSDDD-NH2) | –
140 ± 4 nM | 140 ± 4 nM | CC[C@H](C)[C@H](NC(=O)[C@H](Cc1c[nH]c2ccccc12)NC(=O)[C@H](CC(=O)O)NC(=O)[C@H](CC(=O)O)NC(=O)[C@H](CC(=O)O)NC(=O)[C@H](CCC(=O)O)NC(=O)[C@H](CO)NC(=O)CNC(=O)CNC(=O)CNC(=O)CNC(=O)[C@H](CCCNC(=N)N)NC(=O)[C@H](CCCNC(=N)N)NC(=O)[C@H](CCCNC(=N)N)NC(=O)[C@H](CCCNC(=N)N)NC(=O)[C@H](CCCNC(=N)N)NC(=O)[C@H](CCCNC(=N)N)NC(=O)[C@H](CCCNC(=N)N)NC(=O)[C@H](CCCNC(=N)N)NC(C)=O)C(=O)N[C@@H](CC(=O)O)C(=O)N[C@@H](Cc1c[nH]c2ccccc12)C(=O)NCC(=O)N1CCC[C@H]1C(=O)N[C@H](C(=O)N[C@@H](CO)C(=O)N[C@@H](CC(=O)O)C(=O)N[C@@H](CC(=O)O)C(=O)N[C@@H](CC(=O)O)C(N)=O)[C@@H](C)O [Peptide R8-FL-17] (Ac-RRRRRRRRGGGGSEDDDWIDWGPTSDDD-NH2) | –
314 ± 4 nM | 314 ± 4 nM | CC[C@H](C)[C@H](NC(=O)[C@H](Cc1c[nH]c2ccccc12)NC(=O)[C@H](CC(=O)O)NC(=O)[C@H](CC(=O)O)NC(=O)[C@H](CC(=O)O)NC(=O)[C@H](CCC(=O)O)NC(=O)[C@H](CCCCN)NC(=O)[C@H](C)NC(=O)[C@H](C)NC(=O)[C@H](C)NC(=O)[C@H](CCC(=O)O)NC(=O)[C@H](CCCNC(=N)N)NC(=O)[C@H](CCCNC(=N)N)NC(=O)[C@H](CCCNC(=N)N)NC(=O)[C@H](CCCNC(=N)N)NC(=O)[C@H](CCCNC(=N)N)NC(=O)[C@H](CCCNC(=N)N)NC(=O)[C@H](CCCNC(=N)N)NC(=O)[C@H](CCCNC(=N)N)NC(C)=O)C(=O)N[C@@H](CC(=O)O)C(=O)N[C@@H](Cc1c[nH]c2ccccc12)C(=O)N[C@@H](Cc1ccc(O)cc1)C(=O)N[C@@H](CC(=O)O)C(=O)N[C@@H](CO)C(=O)N[C@@H](CC(=O)O)C(=O)N[C@@H](CC(=O)O)C(=O)N[C@@H](CC(=O)O)C(N)=O [Peptide R8-RL-16] (Ac-RRRRRRRREAAAKEDDDWIDWYDSDDD-NH2) | –
105 ± 2 nM | 105 ± 2 nM | CC[C@H](C)[C@H](NC(=O)[C@H](Cc1c[nH]c2ccccc12)NC(=O)[C@H](CC(=O)O)NC(=O)[C@H](CC(=O)O)NC(=O)[C@H](CC(=O)O)NC(=O)[C@H](CCC(=O)O)NC(=O)[C@H](CCCCN)NC(=O)[C@H](C)NC(=O)[C@H](C)NC(=O)[C@H](C)NC(=O)[C@H](CCC(=O)O)NC(=O)[C@H](CCCNC(=N)N)NC(=O)[C@H](CCCNC(=N)N)NC(=O)[C@H](CCCNC(=N)N)NC(=O)[C@H](CCCNC(=N)N)NC(=O)[C@H](CCCNC(=N)N)NC(=O)[C@H](CCCNC(=N)N)NC(=O)[C@H](CCCNC(=N)N)NC(=O)[C@H](CCCNC(=N)N)NC(C)=O)C(=O)N[C@@H](CC(=O)O)C(=O)N[C@@H](Cc1c[nH]c2ccccc12)C(=O)NCC(=O)N1CCC[C@H]1C(=O)N[C@H](C(=O)N[C@@H](CO)C(=O)N[C@@H](CC(=O)O)C(=O)N[C@@H](CC(=O)O)C(=O)N[C@@H](CC(=O)O)C(N)=O)[C@@H](C)O [Peptide R8-RL-17] (Ac-RRRRRRRREAAAKEDDDWIDWGPTSDDD-NH2) | –
– | – | CC(=O)N[C@@H](CCC(=O)O)C(=O)N[C@@H](CC(=O)O)C(=O)N[C@@H](CC(=O)O)C(=O)N[C@@H](CO)C(=O)N[C@@H](CC(=O)O)C(=O)N[C@H](C(=O)N[C@@H](Cc1c[nH]c2ccccc12)C(=O)N[C@@H](Cc1c[nH]c2ccccc12)C(=O)NCC(=O)N1CCC[C@H]1C(=O)N[C@H](C(=O)NCC(=O)N[C@@H](CC(=O)O)C(=O)N[C@@H](CCC(=O)O)C(=O)N[C@@H](CC(=O)O)C(N)=O)[C@@H](C)O)C(C)C [Peptide X, Ac-EDDSDVWWGPTGDED-NH2] (Ac-EDDSDVWWGPTGDED-NH2) | Ki [3]: 62 ± 1 nM; Ki [4]: 62 ± 1 nM; fold improved affinity compared to APPWT (relative to APPWT): ~10 fold
– | – | CC[C@H](C)[C@H](NC(=O)[C@H](Cc1ccccc1)NC(=O)[C@H](CCC(=O)O)NC(=O)[C@@H](NC(=O)[C@H](CCC(=O)O)NC(C)=O)[C@@H](C)O)C(=O)N[C@@H](C)C(=O)N[C@@H](Cc1c[nH]c2ccccc12)C(=O)NCC(=O)NCC(=O)N[C@@H](C)C(=O)N[C@@H](CC(=O)O)C(=O)N[C@H](C(=O)N[C@@H](CC(=O)O)C(N)=O)[C@@H](C)O [Peptide Y] (Ac-ETEFIAWGGADTD-NH2) | Ki [3]: 354 ± 9 nM; Ki [4]: 345 ± 9 nM
– | – | CC[C@H](C)[C@H](NC(=O)[C@H](Cc1ccccc1)NC(=O)[C@H](CCC(=O)O)NC(=O)[C@@H](NC(=O)[C@H](CCCNC(=N)N)NC(C)=O)[C@@H](C)O)C(=O)N[C@@H](C)C(=O)N[C@@H](Cc1c[nH]c2ccccc12)C(=O)NCC(=O)N1CCC[C@H]1C(=O)N[C@H](C(=O)NCC(=O)N[C@@H](CC(=O)O)C(=O)N[C@@H](CCC(=O)O)C(=O)N[C@@H](CC(=O)O)C(N)=O)[C@@H](C)O [RTEFIAWGPTGDED] (Ac-RTEFIAWGPTGDED-NH2) | Ki [5]: 87 ± 3 nM
– | – | CC[C@H](C)[C@H](NC(=O)[C@H](Cc1ccccc1)NC(=O)[C@H](CCC(=O)O)NC(=O)[C@@H](NC(C)=O)[C@@H](C)O)C(=O)N[C@@H](C)C(=O)N[C@@H](Cc1c[nH]c2ccccc12)C(=O)NCC(=O)N1CCC[C@H]1C(=O)N[C@H](C(=O)NCC(=O)N[C@@H](CC(=O)O)C(=O)N[C@@H](CCC(=O)O)C(=O)N[C@@H](CC(=O)O)C(N)=O)[C@@H](C)O [TEFIAWGPTGDED] (Ac-TEFIAWGPTGDED-NH2) | Ki (Table 5, elongation and truncation scan of AJAP-1 binding epitope, read-out: Ki (nM) mean ± SEM): 102 ± 4 nM
– | – | CC[C@H](C)[C@H](NC(=O)[C@H](Cc1ccccc1)NC(=O)[C@H](CCC(=O)O)NC(=O)[C@@H](NC(=O)[C@@H](NC(C)=O)C(C)C)[C@@H](C)O)C(=O)N[C@@H](C)C(=O)N[C@@H](Cc1c[nH]c2ccccc12)C(=O)NCC(=O)N1CCC[C@H]1C(=O)N[C@H](C(=O)NCC(=O)N[C@@H](CC(=O)O)C(=O)N[C@@H](CCC(=O)O)C(=O)N[C@@H](CC(=O)O)C(N)=O)[C@@H](C)O [VTEFIAWGPTGDED] | Ki [5]: 67 ± 1 nM
– | – | CC[C@H](C)[C@H](NC(=O)[C@H](C)NC(=O)[C@H](Cc1c[nH]c2ccccc12)NC(=O)[C@@H](NC(C)=O)C(C)C)C(=O)N[C@H](C(=O)N[C@@H](Cc1c[nH]c2ccccc12)C(=O)NCC(=O)N1CCC[C@H]1C(=O)N[C@H](C(=O)N[C@H](C(=O)N[C@@H](CO)C(=O)N[C@@H](CCCNC(=N)N)C(=O)N[C@@H](CCC(=O)O)C(=O)N[C@@H](CC(=O)O)C(N)=O)C(C)C)[C@@H](C)O)C(C)C [VWAIVWGPTVSRED] (Ac-VWAIVWGPTVSRED-NH2) | Ki (Table 12, deep mutational scanning validation variants of PIANPWT, read-out: Ki (nM) mean ± SEM): 412 ± 20 nM
– | 143000 ± 2500 nM | CC[C@H](C)[C@H](NC(=O)[C@H](CC(=O)O)NC(=O)[C@H](CC(=O)O)NC(=O)[C@H](Cc1ccc(O)cc1)NC(=O)[C@H](CC(=O)O)NC(=O)[C@H](CC(=O)O)NC(=O)[C@H](CO)NC(=O)[C@H](CC(=O)O)NC(=O)[C@H](CCC(=O)O)NC(=O)[C@H](Cc1ccc2ccccc2c1)NC(=O)[C@H](CCCNC(=N)N)NC(=O)[C@H](CCCNC(=N)N)NC(=O)[C@H](CCCNC(=N)N)NC(=O)[C@H](CCCNC(=N)N)NC(C)=O)C(=O)N[C@@H](CC(=O)O)C(=O)N[C@@H](CC(=O)O)C(=O)N[C@@H](CC(=O)O)C(=O)N[C@@H](Cc1c[nH]c2ccccc12)C(N)=O [reference compound] (Ac-RRRR[2Nal]EDSDDYDDIDDDW-NH2) | –

Compound | Ki [1] | Ki [2] | further results
CC[C@H](C)[C@H](NC(=O)[C@H](Cc1c[nH]c2ccccc12)NC(=O)[C@H](CC(=O)O)NC(=O)[C@H](CC(=O)O)NC(=O)[C@H](CC(=O)O)NC(=O)[C@H](CCC(=O)O)NC(=O)[C@H](CCCNC(=N)N)NC(=O)[C@H](CCCNC(=N)N)NC(=O)[C@H](CCCNC(=N)N)NC(=O)[C@H](CCC(N)=O)NC(=O)[C@H](CCCNC(=N)N)NC(=O)[C@H](CCCNC(=N)N)NC(=O)[C@H](CCCCN)NC(=O)[C@H](CCCCN)NC(=O)[C@H](CCCNC(=N)N)NC(=O)CNC(=O)[C@H](Cc1ccc(O)cc1)NC(C)=O)C(=O)N[C@@H](CC(=O)O)C(=O)N[C@@H](Cc1c[nH]c2ccccc12)C(=O)N[C@@H](Cc1ccc(O)cc1)C(=O)N[C@@H](CC(=O)O)C(=O)N[C@@H](CO)C(=O)N[C@@H](CC(=O)O)C(=O)N[C@@H](CC(=O)O)C(=O)N[C@@H](CC(=O)O)C(N)=O [Tat-16] (Ac-YGRKKRRQRRREDDDWIDWYDSDDD-NH2) | 83 ± 1 nM | 83.4 ± 1 nM | –
CC[C@H](C)[C@H](NC(=O)[C@H](Cc1c[nH]c2ccccc12)NC(=O)[C@H](CC(=O)O)NC(=O)[C@H](CC(=O)O)NC(=O)[C@H](CC(=O)O)NC(=O)[C@H](CCC(=O)O)NC(=O)[C@H](CCCNC(=N)N)NC(=O)[C@H](CCCNC(=N)N)NC(=O)[C@H](CCCNC(=N)N)NC(=O)[C@H](CCC(N)=O)NC(=O)[C@H](CCCNC(=N)N)NC(=O)[C@H](CCCNC(=N)N)NC(=O)[C@H](CCCCN)NC(=O)[C@H](CCCCN)NC(=O)[C@H](CCCNC(=N)N)NC(=O)CNC(=O)[C@H](Cc1ccc(O)cc1)NC(C)=O)C(=O)N[C@@H](CC(=O)O)C(=O)N[C@@H](Cc1c[nH]c2ccccc12)C(=O)NCC(=O)N1CCC[C@H]1C(=O)N[C@H](C(=O)N[C@@H](CO)C(=O)N[C@@H](CC(=O)O)C(=O)N[C@@H](CC(=O)O)C(=O)N[C@@H](CC(=O)O)C(N)=O)[C@@H](C)O [Tat-17] (Ac-YGRKKRRQRRREDDDWIDWGPTSDDD-NH2) | 50 ± 2 nM | 49.9 ± 2 nM | –
